This is an account of results in US20230302036A1, “COMPOSITIONS FOR TREATMENT OF SPINAL MUSCULAR ATROPHY” (priority 2020, published 2023).

Oligonucleotides are written 5' to 3', each unit as a sugar letter and its base; * is a phosphorothioate linkage, no mark a phosphodiester; rarer units and linkages stand in square brackets, end groups in braces. Plain capitals give the bases only. e = 2'-O-(2-methoxyethyl) (MOE); [5mC] = 5-methylcytosine

One data set has as its system SMN2 E7. As to conditions: saturating doses; cited from earlier work.
The subject of data set [1] is endogenous SMN2 E7 alternative splicing. The data set is described as follows: SMN2 E7 alternative splicing by radioactive RT-PCR in HEK293T cells. The data set is classed as cell-based, human. As to conditions: for effect of the drug on ASO1's effect on E7 inclusion: HEK293T transfected with 25 nM ASO1, increasing doses of TSA 24 hr; for effect of the drug on ASO1's effect on E7 inclusion / effect on SMN2 E7 inclusion, agent alone: 25 µM 5-AZA 48 hr; for effect on SMN2 E7 inclusion, agent alone: 25 nM ASO, 3 µM TSA 24 hr, 3 µM CPT. The procedure: Alternative splicing was analyzed by radioactive RT-PCR followed by native polyacrylamide gel electrophoresis and autoradiography. Bars display means ± SD of percentage of the radioactivity in the FL band over the sum of radioactivity measurements in the FL and ΔE7 bands of at least three independent transfection experiments. A two-tailed Student’s t test was used to determine the significance between events. (FIG. 1A) HEK293T cells were co-transfected with the SMN2 minigene and expression vectors for WT^res and hC4 Pol II, followed by addition of α-amanitin. (FIG. 1B) Effect of camptothecin (CPT) on SMN2 E7 alternative splicing. HEK293T cells were incubated for at least 6 hours with 3 µM CPT. Combined effects on endogenous SMN2 E7 alternative splicing of transfection with 25 nM ASO1 and treatment with 3 µM TSA for 24 hr (FIG. 1C), 10 mM VPA for 24 hr (FIG. 1D), or 25 µM 5-AZA for 48 hr (FIG. 1E). Combined effects on HEK293T endogenous SMN2 E7 alternative splicing of transfection with 25 nM each of si-hnRNPA1 and si-hnRNPA2, and treatment with 3 µM TSA for 24 hr (FIG. 1F) or 10 mM VPA for 24 hr (FIG. 1G). […]
HEK293T, HeLa, and SMA type I homozygous and carrier fibroblasts 3813 and 3814 (Coriell Cell Repositories, Camden, New Jersey, United States) were grown in Dulbecco’s modified Eagle’s medium (DMEM) containing 4.5 g of glucose and 10% fetal bovine serum (Gibco) at 37° C. Cells were plated at a density of 2×10^5 cells per well in 12-well plates 24 hr before transfection. siRNA (25 nM), plasmid (500 ng), or ASO (25 nM) transfections were performed 24 hr after cells were plated, using 3 µl of Lipofectamine 2000 (Thermo Fisher Scientific) per well in 12-well plates. 24-48 h later, cells were treated with Trichostatin A (Sigma, T8552), Valproic Acid (Sigma, P4543), 5-Azacytidine (Sigma, A2385) or vehicle for the indicated time, and harvested for downstream procedures. […]

The subject of data set [2] is H3K9me2 along the SMN2 gene. In words: ChIP-qPCR of H3K9me2 distribution along the SMN2 gene in HEK293T cells. It is filed as cell-based, human. As to conditions: HEK293T; ASO transfection or 10 mM VPA. For orientation: Real-time PCR tracks product formation cycle by cycle.
Description: (§3) H3K9me2 (FIG. 2B), total RNAPII (FIG. 2C), P-Ser5 RNAPII (FIG. 2D), and P-Ser2 RNAPII (FIG. 2E) distribution along the SMN2 gene, assessed by ChIP-qPCR in HEK293T cells transfected with the scramble oligo (CTRL) or ASO1 and treated with 10 mM VPA. Four independent immunoprecipitation replicates were conducted per experiment. Data are represented as mean ± S.D. (n = 4, *p < 0.05, two-tailed Student’s t test).
(§4) Total distribution of H3K9me2 (FIG. 3C), total RNAPII (FIG. 3D), P-Ser5 RNAPII (FIG. 3E), and P-Ser2 RNAPII (FIG. 3F) along the SMN2 gene is shown. This distribution was assessed by ChIP-qPCR in HEK293T cells transfected with the scramble oligo (CTRL) or ASO2 and treated with 10 mM VPA. Four independent immunoprecipitation replicates were conducted per experiment. Data are represented as mean ± S.D. (n = 4, *p < 0.05, two-tailed Student’s t test).
Approximately 2×10^6 HEK293T cells per sample were treated for 10 min in 1% (v/v) formaldehyde at room temperature to crosslink protein-DNA complexes. Crosslinking was stopped with glycine at a final concentration of 125 mM. Cells were washed twice with cold PBS and swelled on ice for 10 min in 25 mM HEPES pH 8, 1.5 mM MgCl2, 10 mM KCl, 0.1% NP-40, 1 mM DTT and 1× protease inhibitor cocktail set III (Calbiochem). Following Dounce homogenization, the nuclei were collected and resuspended in 1 ml sonication buffer (50 mM HEPES pH 8, 140 mM NaCl, 1 mM EDTA, 0.1% sodium deoxycholate, 0.1% SDS and 1× protease inhibitor cocktail). DNA was sonicated in an ultrasonic bath (Bioruptor Diagenode) to an average length of 200-500 bp. After addition of 1% (v/v) Triton X-100, samples were centrifuged at 15,000 ×g. Supernatants were immunoprecipitated O/N with 40 µl of pre-coated anti-IgG magnetic beads (Dynabeads M-280, Invitrogen) previously incubated with the antibody of interest for 6 hr at 4° C. The antibodies used were: rabbit anti-H3 (2 µg, Abcam ab1791), mouse anti-H3K9me2 (4 µg, Abcam ab1220), rabbit anti H3K9me3 (4 µg, Abcam ab8898), rabbit anti H3K9Ac (2 µg, Abcam ab4441), rabbit anti Rpb1 NTD (2 µg, Cell Signaling, D8L4Y), rabbit Phospho-Rpb1 CTD Ser2 (2 µg, Cell Signaling, E1Z3G), rabbit Phospho-Rpb1 CTD Ser5 (2 µg, Cell Signaling, D9N5I). Control immunoprecipitations were performed with rabbit IgG (1 µg, Abcam ab171870). […] Immunoprecipitated DNA (1.5 µl) and serial dilutions of the 10% input DNA (1:4, 1:20, 1: 100, and 1:500) were analyzed by SYBR-Green real-time qPCR.
Data set [3] concerns RNAPII (total, P-Ser5, P-Ser2) along the SMN2 gene. The data set is described as follows: ChIP-qPCR of RNAPII distribution along the SMN2 gene in HEK293T cells. The data set is classed as cell-based, human. The conditions noted are these: ASO transfection vs scramble.
Description: as §3, §4
Approximately 2×10^6 HEK293T cells per sample were treated for 10 min in 1% (v/v) formaldehyde at room temperature to crosslink protein-DNA complexes. Crosslinking was stopped with glycine at a final concentration of 125 mM. Cells were washed twice with cold PBS and swelled on ice for 10 min in 25 mM HEPES pH 8, 1.5 mM MgCl2, 10 mM KCl, 0.1% NP-40, 1 mM DTT and 1× protease inhibitor cocktail set III (Calbiochem). Following Dounce homogenization, the nuclei were collected and resuspended in 1 ml sonication buffer (50 mM HEPES pH 8, 140 mM NaCl, 1 mM EDTA, 0.1% sodium deoxycholate, 0.1% SDS and 1× protease inhibitor cocktail). DNA was sonicated in an ultrasonic bath (Bioruptor Diagenode) to an average length of 200-500 bp. After addition of 1% (v/v) Triton X-100, samples were centrifuged at 15,000 ×g. Supernatants were immunoprecipitated O/N with 40 µl of pre-coated anti-IgG magnetic beads (Dynabeads M-280, Invitrogen) previously incubated with the antibody of interest for 6 hr at 4° C. The antibodies used were: rabbit anti-H3 (2 µg, Abcam ab1791), mouse anti-H3K9me2 (4 µg, Abcam ab1220), rabbit anti H3K9me3 (4 µg, Abcam ab8898), rabbit anti H3K9Ac (2 µg, Abcam ab4441), rabbit anti Rpb1 NTD (2 µg, Cell Signaling, D8L4Y), rabbit Phospho-Rpb1 CTD Ser2 (2 µg, Cell Signaling, E1Z3G), rabbit Phospho-Rpb1 CTD Ser5 (2 µg, Cell Signaling, D9N5I). Control immunoprecipitations were performed with rabbit IgG (1 µg, Abcam ab171870). Beads were washed sequentially for 5 min each in Low-salt (20 mM Tris-HCl pH 8, 150 mM NaCl, 2 mM EDTA, 1% Triton X-100, 0.1% SDS), High-Salt (20 mM Tris-HCl pH 8, 500 mM NaCl, 2 mM EDTA, 1% Triton X-100, 0.1% SDS) and LiCl buffer (10 mM Tris pH 8.0, 1 mM EDTA, 250 mM LiCl, 1% NP-40, 1% Na-deoxycholate) for 5 min at 4° C. and then twice in TE 1x for 2 min at room temperature. Beads were eluted in 1% SDS and 100 mM NaHCO3 buffer for 15 min at 65° C. and crosslinking was reversed for 6 hr after addition of NaCl to a final concentration of 200 mM. Chromatin was precipitated with ethanol overnight, treated with 20 µg proteinase K, and purified by phenol-chloroform extraction. Immunoprecipitated DNA (1.5 µl) and serial dilutions of the 10% input DNA (1:4, 1:20, 1: 100, and 1:500) were analyzed by SYBR-Green real-time qPCR.
The test system of data set [4] is H3K9me2 along SERF1A, MYOD, GAPDH. The data set is described as follows: Specificity control ChIP-qPCR of H3K9me2 on SERF1A, MYOD and GAPDH in HEK293T cells. It is filed as cell-based, human. How it is done:
FIGS. 6A-6D show antisense oligonucleotides and their effects on chromatin. […] Uppercase, exonic nucleotide sequence. Lowercase, intronic sequences. Upstream highlight, binding site for ASO1. Downstream highlight, binding site for ASO2. Levels of H3K9me2 deposition along small EDRK-rich factor 1A (SERF1A, upstream of SMN2) (FIG. 6B), Myoblast Determination Protein (MYOD) (FIG. 6C), and Glyceraldehyde 3-phosphate dehydrogenase (GAPDH) (FIG. 6D), were assessed by ChIP-qPCR in HEK293T cells. Data represented as mean ± S.D. (n = 4, *p < 0.05, two-tailed Student’s t test).
Approximately 2×10^6 HEK293T cells per sample were treated for 10 min in 1% (v/v) formaldehyde at room temperature to crosslink protein-DNA complexes. Crosslinking was stopped with glycine at a final concentration of 125 mM. Cells were washed twice with cold PBS and swelled on ice for 10 min in 25 mM HEPES pH 8, 1.5 mM MgCl2, 10 mM KCl, 0.1% NP-40, 1 mM DTT and 1× protease inhibitor cocktail set III (Calbiochem). Following Dounce homogenization, the nuclei were collected and resuspended in 1 ml sonication buffer (50 mM HEPES pH 8, 140 mM NaCl, 1 mM EDTA, 0.1% sodium deoxycholate, 0.1% SDS and 1× protease inhibitor cocktail). […] Immunoprecipitated DNA (1.5 µl) and serial dilutions of the 10% input DNA (1:4, 1:20, 1: 100, and 1:500) were analyzed by SYBR-Green real-time qPCR.

For data set [5], the system named is endogenous SMN2 E7 alternative splicing in HeLa cells. In words: SMN2 E7 alternative splicing by radioactive RT-PCR in HeLa cells. As to conditions: 10 nM ASO1 and 3 µM TSA 24 hr. The data set is classed as cell-based, human. How it is done:
(§1) Combined effects on endogenous SMN2 E7 alternative splicing in transfected (FIG. 5A) HEK293T cells with 25 nM ASO1 and increasing doses of TSA for 24 hr, (FIG. 5B) HeLa cells with 10 nM ASO1 and 3 µM TSA for 24 hr., and (FIG. 5C) SMA patient fibroblasts (3813) with 10 nM ASO1 and 3 µM TSA for 24 hr. Bars display means ± SD of percentage of the radioactivity in the FL band over the sum of radioactivity measurements in the FL and ΔE7 bands of at least three independent transfection experiments. (FIG. 5D and FIG. 5E) Transcriptional activation was assessed by RT-qPCR. (FIG. 5F) HEK293T cells with 3 nM ASO1 and 10 mM VPA for 24 hr. Bars indicate mean transcriptional activation ± SD ratios between precursors of SMN2 and GAPDH as the control gene. Statistical significance was analyzed by two-tailed Student’s t-tests. P < 0.05 was considered statistically significant.
(§2) HEK293T, HeLa, and SMA type I homozygous and carrier fibroblasts 3813 and 3814 (Coriell Cell Repositories, Camden, New Jersey, United States) were grown in Dulbecco’s modified Eagle’s medium (DMEM) containing 4.5 g of glucose and 10% fetal bovine serum (Gibco) at 37° C. […]

For data set [6], the system named is endogenous SMN2 E7 alternative splicing in SMA patient fibroblasts. In words: SMN2 E7 alternative splicing by radioactive RT-PCR in SMA patient fibroblasts (3813). It is filed as cell-based, human. As to conditions: 10 nM ASO1 and 3 µM TSA 24 hr. The procedure:
as §1, §2

The next data set concerns SMN2 pre-mRNA. The data set is described as follows: Transcriptional activation by RT-qPCR of SMN2 pre-mRNA in HEK293T cells. The conditions noted are these: HDAC inhibitor alone. It is filed as cell-based, human.

Regarding “nusinersen: TCACTTTCATAATGCTGG; 2′-O-(2-methoxyethyl) phosphorothioate-modified antisense-oligonucleotide drug targeting a splicing silencer in SMN2 intron 7 (all 2'-MOE, all phosphorothioate, methylation of C not given here)”, in the data set with SMN2 E7, the “inclusion of SMN2 E7” value is “nearly full inclusion of SMN2 E7”.

With `Nc1ncn([C@@H]2O[C@H](CO)[C@@H](O)[C@H]2O)c(=O)n1` [5-AZA, 5-aza cytidine], the “effect of the drug on ASO1's effect on E7 inclusion” value in data set [1] is recorded as “enhanced the effects of ASO1 as effectively as the HDAC inhibitors”. Besides, the “effect on SMN2 E7 inclusion, agent alone” value in data set [1] (HEK293T) is recorded as “no effect per se on E7 inclusion”.

For `CC[C@@]1(O)C(=O)OCc2c1cc1n(c2=O)Cc2cc3ccccc3nc2-1` [CPT, camptothecin], the “effect on SMN2 E7 inclusion, agent alone” value in data set [1] (HEK293T) is on record as “promoted E7 skipping”.

As for “ASO2: 5′-AAAGTATGTTTCTTCCACAC-3′ 2′-O-methoxyethyl phosphorothioate oligonucleotide; target in SMN2 intron 7 downstream of the ASO1 site (antisense eA*eA*eA*eG*eT*eA*eT*eG*eT*eT*eT*e[5mC]*eT*eT*e[5mC]*e[5mC]*eA*e[5mC]*eA*e[5mC])”, the “inhibition of SMN2 E7 inclusion, ASO2 combined with CPT” value in data set [1] (HEK293T, 25 nM ASO2 in combination with 3 µM CPT 24 hr) is recorded as “stronger”. In addition, in data set [1] (HEK293T), the “effect on SMN2 E7 inclusion, agent alone” value was “inhibited SMN2 E7 inclusion as efficiently as the elongation inhibitor CPT”. The “H3K9me2 marks along the SMN2 gene” value in data set [2] is recorded as “promoted H3K9 methylation”. In data set [3], the “P-Ser2 RNAPII density” value is “higher”, the “P-Ser5 RNAPII density” value is reported as “higher” and the “total RNAPII density” value is “higher”. The “H3K9 dimethylation in control genes (same TAD: SERF1A; outside TAD: MYOD, GAPDH)” value in data set [4] is “neither ASO1 nor ASO2 promoted H3K9 dimethylation”.

As to `CC(/C=C/C(=O)NO)=C\[C@@H](C)C(=O)c1ccc(N(C)C)cc1` [TSA, trichostatin A], the “effect of the drug on ASO1's effect on E7 inclusion” value in data set [1] is on record as “dose-dependent”. The “effect on SMN2 E7 inclusion, agent alone” value in data set [1] (HEK293T) is “less potent than ASO1 in upregulating E7 inclusion”. Moreover, the “effect of hnRNPA1/A2 depletion in promoting E7 inclusion upon HDAC inhibitor treatment” value in data set [1] (HEK293T, 25 nM each si-hnRNPA1 and si-hnRNPA2, no ASO1, 3 µM TSA or 10 mM VPA 24 hr) was “stronger”. In addition, the “cooperative effect of TSA with ASO1 on E7 inclusion” value in data set [5] and in data set [6] was “reproducible” each time. Besides, the “levels of SMN2 pre-mRNA (promoter-proximal amplicon)” value in the data set on SMN2 pre-mRNA is listed as “increased the levels of SMN2 pre-mRNA”.
